Patent publication US12065436B2, “Cardiac sarcomere inhibitors” (Cytokinetics, Inc., priority 2018, dated 2024)

Target: bovine cardiac myofibrils (full-length cardiac myosin ATPase in the native sarcomere) (Bos taurus (Bovine), UniProt Q9BE39)
Experiment: Skinned bovine cardiac myofibril ATPase assay (PK/LDH-coupled)
Format: biochemical
Conditions: Ca2+ activating to 75% of maximal rate; for CDMF75 IC15: concentration giving 15% inhibition; for IC50: read-out: CDMF75 IC50
Outline: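 Triton-skinned bovine left-ventricle myofibrils (1 mg/mL) in PM 12 buffer (12 mM PIPES, 2 mM MgCl2, pH 6.8) with 50 μM ATP, 0.6 mM EGTA and CaCl2 set for 50% or 75% activation. Steady-state ATPase inhibition followed by PK/LDH-coupled NADH oxidation at 340 nm.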

Sequence of bovine cardiac myofibrils (full-length cardiac myosin ATPase in the native sarcomere) (Q9BE39 whole entry): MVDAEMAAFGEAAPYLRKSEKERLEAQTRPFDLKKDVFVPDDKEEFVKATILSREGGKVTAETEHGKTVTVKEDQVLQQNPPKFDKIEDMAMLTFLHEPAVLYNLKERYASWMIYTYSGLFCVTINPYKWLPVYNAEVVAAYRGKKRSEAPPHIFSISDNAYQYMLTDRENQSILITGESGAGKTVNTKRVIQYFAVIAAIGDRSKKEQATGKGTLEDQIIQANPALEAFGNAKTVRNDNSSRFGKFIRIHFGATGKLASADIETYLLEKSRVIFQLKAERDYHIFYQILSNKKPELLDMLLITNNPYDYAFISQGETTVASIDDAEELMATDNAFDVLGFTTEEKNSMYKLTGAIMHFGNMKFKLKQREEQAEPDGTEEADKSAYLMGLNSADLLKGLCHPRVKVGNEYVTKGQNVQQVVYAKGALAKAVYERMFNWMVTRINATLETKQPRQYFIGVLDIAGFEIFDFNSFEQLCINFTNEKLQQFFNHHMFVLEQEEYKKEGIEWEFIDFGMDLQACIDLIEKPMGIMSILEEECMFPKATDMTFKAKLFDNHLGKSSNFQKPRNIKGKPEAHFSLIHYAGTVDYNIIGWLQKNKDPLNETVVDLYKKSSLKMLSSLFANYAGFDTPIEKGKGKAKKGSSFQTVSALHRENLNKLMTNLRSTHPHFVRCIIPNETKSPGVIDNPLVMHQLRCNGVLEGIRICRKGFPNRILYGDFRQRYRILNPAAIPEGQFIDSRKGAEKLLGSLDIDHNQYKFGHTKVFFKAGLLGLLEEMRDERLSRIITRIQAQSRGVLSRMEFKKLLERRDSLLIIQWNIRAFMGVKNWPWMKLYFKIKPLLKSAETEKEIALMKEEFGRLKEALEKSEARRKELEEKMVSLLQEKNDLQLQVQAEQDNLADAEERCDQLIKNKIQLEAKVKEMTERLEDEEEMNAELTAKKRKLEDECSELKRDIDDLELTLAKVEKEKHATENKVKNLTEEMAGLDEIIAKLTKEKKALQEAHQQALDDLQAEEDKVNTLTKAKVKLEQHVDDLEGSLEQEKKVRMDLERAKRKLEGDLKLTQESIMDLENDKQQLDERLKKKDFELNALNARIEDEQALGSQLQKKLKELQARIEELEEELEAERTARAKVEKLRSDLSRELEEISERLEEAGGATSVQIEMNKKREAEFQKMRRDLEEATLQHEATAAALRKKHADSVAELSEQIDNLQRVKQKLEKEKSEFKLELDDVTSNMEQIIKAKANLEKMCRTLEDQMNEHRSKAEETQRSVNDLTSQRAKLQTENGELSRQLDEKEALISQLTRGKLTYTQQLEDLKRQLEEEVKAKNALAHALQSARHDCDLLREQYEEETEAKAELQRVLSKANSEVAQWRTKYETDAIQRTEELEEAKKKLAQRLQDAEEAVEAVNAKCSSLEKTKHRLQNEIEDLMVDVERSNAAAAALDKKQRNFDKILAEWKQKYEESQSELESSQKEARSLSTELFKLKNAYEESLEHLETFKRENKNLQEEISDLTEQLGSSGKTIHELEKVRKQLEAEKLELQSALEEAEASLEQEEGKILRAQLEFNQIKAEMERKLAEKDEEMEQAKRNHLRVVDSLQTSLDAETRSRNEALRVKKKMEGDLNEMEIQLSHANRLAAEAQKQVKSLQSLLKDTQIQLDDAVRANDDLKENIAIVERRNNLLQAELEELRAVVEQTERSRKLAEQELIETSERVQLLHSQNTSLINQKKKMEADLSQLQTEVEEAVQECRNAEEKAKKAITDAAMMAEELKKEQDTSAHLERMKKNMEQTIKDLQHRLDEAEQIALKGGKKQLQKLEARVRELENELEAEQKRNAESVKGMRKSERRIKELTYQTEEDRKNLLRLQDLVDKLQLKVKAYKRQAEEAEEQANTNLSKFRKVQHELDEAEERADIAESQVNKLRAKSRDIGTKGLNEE
Sequence of bovine cardiac myofibrils (full-length cardiac myosin ATPase in the native sarcomere) (P85100 whole entry partner): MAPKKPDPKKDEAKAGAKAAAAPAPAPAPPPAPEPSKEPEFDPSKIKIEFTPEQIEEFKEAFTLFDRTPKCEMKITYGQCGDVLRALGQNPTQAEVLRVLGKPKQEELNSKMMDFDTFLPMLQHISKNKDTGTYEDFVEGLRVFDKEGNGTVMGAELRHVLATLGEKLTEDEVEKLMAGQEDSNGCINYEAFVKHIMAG
Sequence of bovine cardiac myofibrils (full-length cardiac myosin ATPase in the native sarcomere) (Q3SZE5 whole entry partner): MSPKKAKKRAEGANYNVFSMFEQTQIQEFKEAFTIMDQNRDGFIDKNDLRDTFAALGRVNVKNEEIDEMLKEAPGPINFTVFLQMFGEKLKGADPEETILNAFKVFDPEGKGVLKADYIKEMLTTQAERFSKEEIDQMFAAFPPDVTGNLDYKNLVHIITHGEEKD

| SMILES | CDMF75 IC15 | IC50 |
| --- | --- | --- |
| Cc1nc(-c2ccc3c(c2)OC[C@H]3NC(=O)c2cccc([C@H](C)O)c2)no1 [Compound 734, 3-((S)-1-hydroxyethyl)-N-((S)-6-(5-methyl-1,2,4-oxadiazol-3-yl)-2,3-dihydrobenzofuran-3-yl)benzamide] | 0.8 µM | 4.1 µM |
| COc1cc(C(=O)N[C@@H]2CCc3cc(-c4noc(C(F)F)n4)ccc32)on1 [Compound 680, (R)-N-(5-(5-(difluoromethyl)-1,2,4-oxadiazol-3-yl)-2,3-dihydro-1H-inden-1-yl)-3-methoxyisoxazole-5-carboxamide] | 0.5 µM | 1.7 µM |
| CC(C)(O)C(=O)N[C@@H]1CCc2cc(-c3noc(C(F)F)n3)ccc21 [Compound 290, (R)-N-(5-(5-(difluoromethyl)-1,2,4-oxadiazol-3-yl)-2,3-dihydro-1H-inden-1-yl)-2-hydroxy-2-methylpropanamide] | 39.2 µM | > 39.2 µM |
| Cc1ncc(C(=O)N[C@@H]2CCc3cc(-c4noc(C5(C)CC5)n4)ccc32)o1 [Compound 465, (R)-2-methyl-N-(5-(5-(1-methylcyclopropyl)-1,2,4-oxadiazol-3-yl)-2,3-dihydro-1H-inden-1-yl)oxazole-5-carboxamide] | 0.7 µM | 2.6 µM |
| Cn1nccc1C(=O)N[C@@H]1CCc2cc(-c3noc(C4CC4)n3)ccc21 [Compound 241, (R)-N-(5-(5-cyclopropyl-1,2,4-oxadiazol-3-yl)-2,3-dihydro-1H-inden-1-yl)-1-methyl-1H-pyrazole-5-carboxamide] | 0.2 µM | 0.8 µM |
| [2H]C([2H])([2H])c1nc(-c2ccc3c(c2)CC[C@H]3NC(C)=O)no1 [Compound 408, (R)-N-(5-(5-(methyl-d3)-1,2,4-oxadiazol-3-yl)-2,3-dihydro-1H-inden-1-yl)acetamide] | 2.8 µM | 12.8 µM |
| CC(=O)N[C@@H]1CCc2cc(-c3noc(C4CCC4)n3)ccc21 [Compound 406, (R)-N-(5-(5-cyclobutyl-1,2,4-oxadiazol-3-yl)-2,3-dihydro-1H-inden-1-yl)acetamide] | 1.9 µM | 7.7 µM |
| Cc1cc(C(=O)NC2CCc3cc(-c4cnc(C)o4)ccc32)ccn1 (centres unmarked) [Compound 134, 2-methyl-N-(5-(2-methyloxazol-5-yl)-2,3-dihydro-1H-inden-1-yl)isonicotinamide] | 39.2 µM | > 39.2 µM |
| O=C(NC1CCCC1)N[C@@H]1CCc2cc(-c3noc(C(F)F)n3)ccc21 [Compound 298, (R)-1-cyclopentyl-3-(5-(5-(difluoromethyl)-1,2,4-oxadiazol-3-yl)-2,3-dihydro-1H-inden-1-yl)urea] | 39.2 µM | > 39.2 µM |
| [2H]C([2H])([2H])c1nc(-c2ccc3c(c2)CC[C@H]3NC(=O)c2cc(C)nn2C)no1 [Compound 247, (R)-1,3-dimethyl-N-(5-(5-(methyl-d3)-1,2,4-oxadiazol-3-yl)-2,3-dihydro-1H-inden-1-yl)-1H-pyrazole-5-carboxamide] | 0.8 µM | 2.6 µM |
| Cc1cc(C(=O)N[C@@H]2COc3cc(-c4noc(C5CC5)n4)ccc32)n(C)n1 [Compound 233, (S)-N-(6-(5-cyclopropyl-1,2,4-oxadiazol-3-yl)-2,3-dihydrobenzofuran-3-yl)-1,3-dimethyl-1H-pyrazole-5-carboxamide] | 0.3 µM | 1.1 µM |
| Cc1nc(-c2ccc3c(c2)CCC3NC(=O)c2nnn(C)n2)no1 (centres unmarked) [Compound 64, 2-methyl-N-(5-(5-methyl-1,2,4-oxadiazol-3-yl)-2,3-dihydro-1H-inden-1-yl)-2H-tetrazole-5-carboxamide] | 1.2 µM | 5.1 µM |
| Cc1cnc(-c2ccc3c(c2)CC[C@H]3NC(=O)c2ccnn2C)s1 [Compound 371, (R)-1-methyl-N-(5-(5-methylthiazol-2-yl)-2,3-dihydro-1H-inden-1-yl)-1H-pyrazole-5-carboxamide] | 0.7 µM | 2.9 µM |
| CCc1cc(-c2ccc3c(c2)CC[C@H]3NC(=O)c2cnc(C)o2)no1 [Compound 415, (R)-N-(5-(5-ethylisoxazol-3-yl)-2,3-dihydro-1H-inden-1-yl)-2-methyloxazole-5-carboxamide] | 0.5 µM | 1.7 µM |

Other lines, results leading:

| CDMF75 IC15 | IC50 | SMILES |
| --- | --- | --- |
| 2.3 µM | > 39.2 µM | CCn1nc(C)c(C(=O)NC2CCc3cc(-c4noc(C(F)F)n4)ccc32)n1 (centres unmarked) [Compound 20, N-(5-(5-(difluoromethyl)-1,2,4-oxadiazol-3-yl)-2,3-dihydro-1H-inden-1-yl)-2-ethyl-5-methyl-2H-1,2,3-triazole-4-carboxamide] |
| 3.5 µM | 15 µM | CCc1nc(-c2ccc3c(c2)CC[C@H]3NC(=O)c2cnccc2C)no1 [Compound 627, (R)-N-(5-(5-ethyl-1,2,4-oxadiazol-3-yl)-2,3-dihydro-1H-inden-1-yl)-4-methylnicotinamide] |
| 0.7 µM | 2.4 µM | Cn1cc(C(=O)N[C@@H]2CCc3cc(-c4noc(C(F)F)n4)ccc32)cn1 [Compound 186, (R)-N-(5-(5-(difluoromethyl)-1,2,4-oxadiazol-3-yl)-2,3-dihydro-1H-inden-1-yl)-1-methyl-1H-pyrazole-4-carboxamide] |
| 8.1 µM | > 39.2 µM | Cc1cc(C(=O)N[C@@H]2CCc3cc(-c4nc(C)co4)ccc32)ccn1 [Compound 172, (R)-2-methyl-N-(5-(4-methyloxazol-2-yl)-2,3-dihydro-1H-inden-1-yl)isonicotinamide] |
| 4.3 µM | 17.7 µM | Cc1cc(C(=O)NC2CCc3cc(-c4nc(C(F)F)no4)ccc32)ccn1 (centres unmarked) [Compound 132, N-(5-(3-(difluoromethyl)-1,2,4-oxadiazol-5-yl)-2,3-dihydro-1H-inden-1-yl)-2-methylisonicotinamide] |
| 13.0 µM | > 39.2 µM | CCc1nc(-c2ccc3c(c2)CC[C@H]3NC(=O)C2CCC(=O)N(C)C2)no1 (stereo partly drawn) [Compound 352, N-((R)-5-(5-ethyl-1,2,4-oxadiazol-3-yl)-2,3-dihydro-1H-inden-1-yl)-1-methyl-6-oxopiperidine-3-carboxamide] |
| 11.8 µM | 39.2 µM | CC(=O)OCCc1nc(-c2ccc3c(c2)CC[C@H]3NC(=O)c2cnn(C)c2)no1 [Compound 548, 2-(3-{(1R)-1-[(1-methylpyrazol-4-yl)carbonylamino]indan-5-yl}-1,2,4-oxadiazol-5-yl)ethyl acetate] |
| 4.6 µM | 17.3 µM | CC(=O)O[C@@H](C)c1nc(-c2ccc3c(c2)CC[C@H]3NC(=O)c2cnn(C)c2)no1 [Compound 543, 1-(3-{(1R)-1-[(1-methylpyrazol-4-yl)carbonylamino]indan-5-yl}(1,2,4-oxadiazol-5-yl))(1S)ethyl acetate] |
| 0.5 µM | 1.8 µM | CCc1nc(-c2ccc3c(c2)CC[C@H]3NC(=O)c2ccncn2)no1 [Compound 630, (R)-N-(5-(5-ethyl-1,2,4-oxadiazol-3-yl)-2,3-dihydro-1H-inden-1-yl)pyrimidine-4-carboxamide] |
| 0.9 µM | 3.2 µM | COCc1nc(-c2ccc3c(c2)CC[C@H]3NC(=O)c2c[nH]nc2C)no1 [Compound 397, (R)-N-(5-(5-(methoxymethyl)-1,2,4-oxadiazol-3-yl)-2,3-dihydro-1H-inden-1-yl)-3-methyl-1H-pyrazole-4-carboxamide] |
| 1.4 µM | 7 µM | CCc1nc(-c2ccc3c(c2)CC[C@H]3NC(=O)c2coc(C)n2)no1 [Compound 561, (R)-N-(5-(5-ethyl-1,2,4-oxadiazol-3-yl)-2,3-dihydro-1H-inden-1-yl)-2-methyloxazole-4-carboxamide] |
| 2.2 µM | 9.5 µM | Cc1nccnc1C(=O)NC1CCc2cc(-c3noc(C(F)F)n3)ccc21 (centres unmarked) [Compound 38, N-(5-(5-(difluoromethyl)-1,2,4-oxadiazol-3-yl)-2,3-dihydro-1H-inden-1-yl)-3-methylpyrazine-2-carboxamide] |
| 1.2 µM | 4.6 µM | CCc1nc(-c2ccc3c(c2)CC[C@H]3NC(=O)c2ccn(CCO)n2)no1 [Compound 608, (R)-N-(5-(5-ethyl-1,2,4-oxadiazol-3-yl)-2,3-dihydro-1H-inden-1-yl)-1-(2-hydroxyethyl)-1H-pyrazole-3-carboxamide] |
| 4.7 µM | 21.1 µM | CCc1nc(-c2ccc3c(c2)CC[C@H]3NC(=O)OCC2CN(C(=O)NC)C2)no1 [Compound 363, (1-(methylcarbamoyl)azetidin-3-yl)methyl (R)-(5-(5-ethyl-1,2,4-oxadiazol-3-yl)-2,3-dihydro-1H-inden-1-yl)carbamate] |
| 1.3 µM | 4.7 µM | CCc1nc(-c2ccc3c(c2)CC[C@H]3NC(=O)c2ccn(C[C@@H](C)O)c(=O)c2)no1 [Compound 560, N-((R)-5-(5-ethyl-1,2,4-oxadiazol-3-yl)-2,3-dihydro-1H-inden-1-yl)-1-((R)-2-hydroxypropyl)-2-oxo-1,2-dihydropyridine-4-carboxamide] |
| 0.7 µM | 2.3 µM | Cc1ncc(C(=O)N[C@@H]2CCc3cc(-c4noc(C(F)F)n4)ccc32)n1C [Compound 678, (R)-N-(5-(5-(difluoromethyl)-1,2,4-oxadiazol-3-yl)-2,3-dihydro-1H-inden-1-yl)-1,2-dimethyl-1H-imidazole-5-carboxamide] |
| 18.8 µM | > 39.2 µM | CCc1nc(-c2ccc3c(c2)CC[C@H]3NC(=O)[C@@H]2CCNC(=O)C2)no1 [Compound 351, (R)-N-((R)-5-(5-ethyl-1,2,4-oxadiazol-3-yl)-2,3-dihydro-1H-inden-1-yl)-2-oxopiperidine-4-carboxamide] |
